From US20220144812A1, “QUINOLINE DERIVATIVES AND THEIR USE FOR THE TREATMENT OF CANCER” (Epizyme, Inc., priority 2019, published 2022)
Where two headings read alike, the source gives them in different places. Blank lines part the entries; values can stand above or below the compound they belong to.

Tests used:
[1] = system: H3K18Ac in HB-CLS-2 cells; test: H3K18AC in-cell western (ICW) assay; format: cell-based; settings: H3K18Ac in-cell western, read-out: CREBBP ICW IC50
In short: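 HB-CLS-2 cells seeded 16–24 hours before 2 hr compound treatment at 37° C, 5% CO2, then methanol-fixed. H3K18Ac detected with rabbit monoclonal primary (overnight, 4° C) and 800CW anti-rabbit secondary; DRAQ5 stained DNA. Plates imaged at 700 and 800 nm for integrated intensity; IC50 in μM.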

[2] = target: T1, CREBBP (1084-1701) (Homo sapiens, UniProt Q92793); test: Biochemical assay for CREBBP (1084-1701), SAMDI; settings: SAMDI, read-out: CREBBP Biochemistry IC50
T1 construct: measured in the following biochemical assay using CREBBP (1084-1701); purchased
In short: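 CREBBP (1084-1701) preincubated with compound 30 min at RT, then substrate mix (biotin-H3 11-25 K14R/K23R peptide, acetyl-CoA) added for 30 min at RT. Reaction stopped with formic acid, neutralised with sodium bicarbonate. Peptide acetylation read by SAMDI mass spectrometry to derive IC50.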

[3] = system: 647V cells; test: High throughput proliferation (HTP) assay; format: cell-based; settings: high throughput proliferation, read-out: CREBBP HTP IC50
Excerpt: The following example describes methods and materials relating to a high throughput proliferation (HTP) assay. IC50 values (micromolar) are summarized in Table 1, Table 2, and Table 3 under the column labeled: “CREBBP HTP IC50 (micromolar).”
MATERIALS: 647V cell line, Dulbecco's MEM, penicillin-streptomycin, heat inactivated fetal bovine serum, D-PBS, and CellTiter-Glo were commercially available.
647V adherent cells were maintained in complete growth medium (Dulbecco's MEM supplemented with 15% v/v heat inactivated fetal bovine serum) and cultured at 37° C. under 5% CO2.
METHOD: Measurement of the effect of compound in High Throughput Proliferation (HTP) assays was performed as follows: Exponentially growing 647V cells were plated, in triplicate, in 384-well plates at the appropriate cell density in a final volume of 50 μl. Cells were incubated in the presence of increasing concentrations of compound. Viable cell number was determined at day 7 by addition of 35 μl CellTiter-Glo to each well of the plate, incubated in the dark for 30 minutes, and read on a PerkinElmer EnVision instrument to enumerate the number of cells.

[4] = target: T2, EP300 (P300(1048-1664)) (Homo sapiens, UniProt Q09472); test: Biochemical assay for EP300, SAMDI; settings: EP300, SAMDI; read-out: EP300 Biochemistry IC50
T2 construct: P300(1048-1664)
T2 sequence (Q09472 1048-1664): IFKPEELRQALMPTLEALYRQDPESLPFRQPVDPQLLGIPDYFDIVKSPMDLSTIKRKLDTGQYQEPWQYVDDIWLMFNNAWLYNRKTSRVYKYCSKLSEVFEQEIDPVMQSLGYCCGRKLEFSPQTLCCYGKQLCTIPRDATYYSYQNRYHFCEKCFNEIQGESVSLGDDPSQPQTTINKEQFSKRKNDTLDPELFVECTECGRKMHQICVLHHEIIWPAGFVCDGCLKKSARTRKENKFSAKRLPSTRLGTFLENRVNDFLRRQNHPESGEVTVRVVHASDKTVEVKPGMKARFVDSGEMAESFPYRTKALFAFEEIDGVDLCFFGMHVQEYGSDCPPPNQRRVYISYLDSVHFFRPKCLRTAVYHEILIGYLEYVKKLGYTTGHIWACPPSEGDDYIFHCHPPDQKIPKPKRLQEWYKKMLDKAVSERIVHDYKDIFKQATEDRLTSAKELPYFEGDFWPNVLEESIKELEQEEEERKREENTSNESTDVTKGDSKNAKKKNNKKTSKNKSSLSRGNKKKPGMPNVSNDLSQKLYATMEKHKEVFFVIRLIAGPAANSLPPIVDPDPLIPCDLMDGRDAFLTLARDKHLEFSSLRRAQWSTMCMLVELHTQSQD
Excerpt: The following example describes materials and methods relating to a biochemical assay for EP300. IC50 values (micromolar (μM)) are summarized in Table 1, Table 2, and Table 3 under the column labeled: “EP300 Biochemistry IC50 (micromolar).”

[5] = Homo sapiens, 647-V, 647V cells

T1 sequence (Q92793 1084-1701): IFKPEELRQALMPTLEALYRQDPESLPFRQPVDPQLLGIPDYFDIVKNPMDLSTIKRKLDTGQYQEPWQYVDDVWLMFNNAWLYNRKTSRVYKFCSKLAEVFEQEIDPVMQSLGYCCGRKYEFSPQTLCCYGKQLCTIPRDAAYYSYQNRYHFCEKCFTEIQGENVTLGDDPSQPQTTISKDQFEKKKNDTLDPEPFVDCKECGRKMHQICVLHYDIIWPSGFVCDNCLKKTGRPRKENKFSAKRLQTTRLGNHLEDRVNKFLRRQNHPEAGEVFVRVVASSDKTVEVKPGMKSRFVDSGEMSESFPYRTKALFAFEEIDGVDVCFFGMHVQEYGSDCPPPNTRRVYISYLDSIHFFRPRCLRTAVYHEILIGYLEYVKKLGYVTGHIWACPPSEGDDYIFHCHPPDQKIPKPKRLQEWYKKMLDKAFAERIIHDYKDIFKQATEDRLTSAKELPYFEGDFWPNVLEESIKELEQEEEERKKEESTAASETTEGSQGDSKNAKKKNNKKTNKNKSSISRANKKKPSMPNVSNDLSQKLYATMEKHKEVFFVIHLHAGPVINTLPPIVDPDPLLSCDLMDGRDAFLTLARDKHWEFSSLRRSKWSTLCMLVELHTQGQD

Compound: CCn1ncc(CN(C)C(=O)c2nc(-c3cc4c(C)[nH]nc4cc3Cl)nc3ccc(Cl)cc23)c1C [Compound 1]
IC50 [1]: 27 nM
IC50 [2]: 3.3 nM
IC50 ([3]; Homo sapiens, 647-V): 20 nM
IC50 [4]: 2.1 nM

Compound: CCn1ncc(CN(C)C(=O)c2nc(-c3cc(Cl)c4nc[nH]c4c3)nc3ccc(COC)cc23)c1C [Compound 4]
IC50 [1]: 57 nM
IC50 [2]: 12 nM
IC50 ([3]; Homo sapiens, 647-V): 37 nM
IC50 [4]: 3.7 nM

Compound: CCn1ncc(CN(C)C(=O)c2nc(-c3cc(NCCNC)cc(OC)c3)nc3ccc(Cl)cc23)c1C [Compound 5]
IC50 [1]: 60 nM
IC50 [2]: 16 nM
IC50 ([3]; Homo sapiens, 647-V): 35 nM
IC50 [4]: 11 nM

Compound: CCn1ncc(CN(C)C(=O)c2nc(-c3cc4n[nH]cc4cc3Cl)nc3ccc(Cl)cc23)c1C [Compound 7]
IC50 [1]: 77 nM
IC50 [2]: 9.5 nM
IC50 ([3]; Homo sapiens, 647-V): 66 nM
IC50 [4]: 5.3 nM

Compound: CCn1ncc(CN(C)C(=O)c2nc(-c3cc(C)nc(NCCNC)c3)nc3ccc(Cl)cc23)c1C [Compound 8]
IC50 [1]: 78 nM
IC50 [2]: 33 nM
IC50 ([3]; Homo sapiens, 647-V): 42 nM
IC50 [4]: 26 nM

Compound: CCn1ncc(CN(C)C(=O)c2nc(-c3cc(C#N)cc(NCCNC)c3)nc3ccc(Cl)cc23)c1C [Compound 9]
IC50 [1]: 90 nM
IC50 [2]: 15 nM
IC50 ([3]; Homo sapiens, 647-V): 51 nM
IC50 [4]: 11 nM

Compound: CCn1ncc(CN(C)C(=O)c2nc(-c3cc4[nH]ncc4cc3C)nc3ccc(Cl)cc23)c1C [Compound 10]
IC50 [1]: 93 nM
IC50 [2]: 22 nM
IC50 ([3]; Homo sapiens, 647-V): 77 nM
IC50 [4]: 8.4 nM

Compound: CCn1ncc(CN(C)C(=O)c2nc(-c3cc(C)cc(NC(=O)CNC)c3)nc3ccc(Cl)cc23)c1C [Compound 13]
IC50 [1]: 120 nM
IC50 [2]: 10 nM
IC50 ([3]; Homo sapiens, 647-V): 110 nM
IC50 [4]: 7.7 nM

Compound: CCn1ncc(CN(C)C(=O)c2nc(-c3ccc(OCC(O)CN4CCCC4)cc3Cl)nc3ccc(Cl)cc23)c1C (stereo not drawn) [Compound 15]
IC50 [1]: 150 nM
IC50 [2]: 28 nM
IC50 ([3]; Homo sapiens, 647-V): 64 nM
IC50 [4]: 12 nM

Compound: CCn1ncc(CN(C)C(=O)c2nc(-c3cc(N)cc(Cl)c3)nc3ccc(Cl)cc23)c1C [Compound 16]
IC50 [1]: 150 nM
IC50 [2]: 4.6 nM
IC50 ([3]; Homo sapiens, 647-V): 160 nM
IC50 [4]: 7.4 nM

Compound: CCn1ncc(CN(C)C(=O)c2nc(-c3cc(C(=O)NC)n(C)n3)nc3ccc(Cl)cc23)c1C [Compound 18]
IC50 [1]: 170 nM
IC50 [2]: 23 nM
IC50 ([3]; Homo sapiens, 647-V): 220 nM
IC50 [4]: 10 nM

Compound: CCn1ncc(CN(C)C(=O)c2nc(-c3cc(Cl)c4c[nH]nc4c3)nc3ccc(COC)cc23)c1C [Compound 22]
IC50 [1]: 180 nM
IC50 [2]: 14 nM
IC50 ([3]; Homo sapiens, 647-V): 210 nM
IC50 [4]: 14 nM

Compound: CCn1ncc(CN(C)C(=O)c2nc(-c3cc4nc[nH]c4cc3Cl)nc3ccc(Cl)cc23)c1C [Compound 26]
IC50 [1]: 210 nM
IC50 [2]: 84 nM
IC50 ([3]; Homo sapiens, 647-V): 130 nM
IC50 [4]: 170 nM

Compound: CCn1ncc(CN(C)C(=O)c2nc(-c3ccc(OCCCN(C)C(=O)OC(C)(C)C)c(C)c3)nc3ccc(Cl)cc23)c1C [Compound 183]
IC50 [2]: 18000 nM
IC50 [3]: 8700 nM
IC50 [4]: 42000 nM

Compound: CCn1ncc(CN(C)C(=O)c2nc(-c3ccccc3Cl)nc3c(C#N)cccc23)c1C [Compound 211]
IC50 [2]: 32000 nM
IC50 ([3]; 647V cells): 15000 nM
IC50 [4]: 17000 nM

Compound: Cc1n[nH]c(C)c1CN(C)C(=O)c1nc(-c2cccc(Cl)c2)nc2ccc(Cl)cc12 [Compound 248]
IC50 ([1]; HB-CLS-2 cells): 20000 nM
IC50 [3, 5]: 19000 nM
IC50 [4]: 114000 nM

Compound: CCn1ncc(CN(C)C(=O)c2nc(-c3cc(C(=O)NC)nn3C)nc3ccc(P(C)(C)=O)cc23)c1C [Compound 393]
IC50 [2]: 50000 nM
IC50 ([3]; 647V cells): 8600 nM
IC50 [4]: 50000 nM

Compound: CCn1ncc(CN(C)C(=O)c2nc(-c3cc(C)c4cn[nH]c4c3)nc3ccc(Cl)cc23)c1C [Compound 412]
IC50 ([1]; HB-CLS-2 cells): 250 nM
IC50 [3, 5]: 150 nM
IC50 [4]: 130 nM

More lines, main results first:

IC50 [1]: 34 nM
IC50 [2]: 22 nM
IC50 [4]: 5 nM
Compound: CCn1ncc(CN(C)C(=O)c2nc(-c3ccc(OCCCNC)c(C)c3Cl)nc3ccc(Cl)cc23)c1C [Compound 2]
IC50 ([3]; Homo sapiens, 647-V): 17 nM

IC50 [1]: 110 nM
IC50 [2]: 13 nM
IC50 [4]: 3.5 nM
Compound: CCn1ncc(CN(C)C(=O)c2nc(-c3cc(Cl)cc(NCCNC)c3)nc3ccc(Cl)cc23)c1C [Compound 12]
IC50 ([3]; Homo sapiens, 647-V): 32 nM

IC50 [1]: 140 nM
IC50 [2]: 14 nM
IC50 [4]: 2.9 nM
Compound: CCn1ncc(CN(C)C(=O)c2nc(-c3cc(Cl)cc(NCCNC)c3)nc3ccc(Cl)cc23)c1C [Compound 14]
IC50 [3]: 39 nM

IC50 [1]: 170 nM
IC50 [2]: 60 nM
IC50 [4]: 120 nM
Compound: CCn1ncc(CN(C)C(=O)c2nc(-c3cc4[nH]cnc4cc3C)nc3ccc(Cl)cc23)c1C [Compound 17]
IC50 ([3]; Homo sapiens, 647-V): 130 nM

IC50 [1]: 180 nM
IC50 [2]: 27 nM
IC50 [4]: 10 nM
Compound: CCn1ncc(CN(C)C(=O)c2nc(-c3ccc(OCC(O)CNC)cc3Cl)nc3ccc(Cl)cc23)c1C (stereo not drawn) [Compound 20]
IC50 ([3]; Homo sapiens, 647-V): 71 nM

IC50 [1]: 180 nM
IC50 [2]: 31 nM
IC50 [4]: 48 nM
Compound: CCn1ncc(CN(C)C(=O)c2nc(-c3ccc(OCCNC)c(Cl)c3)nc3ccc(Cl)cc23)c1C [Compound 21]
IC50 ([3]; Homo sapiens, 647-V): 120 nM

IC50 [1]: 190 nM
IC50 [2]: 46 nM
IC50 [4]: 50 nM
Compound: CCn1ncc(CN(C)C(=O)c2nc(-c3ccc(OCCNC)cc3Cl)nc3ccc(Cl)cc23)c1C [Compound 23]
IC50 ([3]; Homo sapiens, 647-V): 82 nM

IC50 [1]: 210 nM
IC50 [2]: 27 nM
IC50 [4]: 33 nM
Compound: CCn1ncc(CN(C)C(=O)c2nc(-c3ccc(OCC(O)CNC)c(Cl)c3)nc3ccc(Cl)cc23)c1C (stereo not drawn) [Compound 25]
IC50 ([3]; Homo sapiens, 647-V): 76 nM

IC50 ([1]; HB-CLS-2 cells): 20000 nM
IC50 [4]: 157000 nM
Compound: CCn1ncc(CN(C)C(=O)c2nc(-c3cn(CCCNC)cn3)nc3ccc(Cl)cc23)c1C [Compound 247]
IC50 [3, 5]: 20000 nM

IC50 ([1]; HB-CLS-2 cells): 400 nM
IC50 [4]: 180 nM
Compound: CCn1ncc(CN(C)C(=O)c2nc(-c3ccc(OCCNC(=O)C(C)C)c(Cl)c3)nc3ccc(Cl)cc23)c1C [Compound 416]
IC50 [3, 5]: 400 nM
